Data published in patent US8557741B2, “3-aminocarbonyl-substituted benzoylcyclohexanediones and their use as herbicides” (Bayer CropScience AG, priority 2010, dated 2013).
Where two headings read alike, the source gives them in different places.

Tests used:
Type in all cases: in vivo
Abutilon theophrasti [1] = assay: Pre-emergence herbicidal action against harmful plants; conditions: Abutilon theophrasti, 504 h, dosage 320 g/ha, visual assessment after 3 weeks (Table A), read-out: Herbicidal action against ABUTH
Source text: (§1) The abbreviations used in the tables below denote: • ABUTH Abutilon theophrasti • AMARE Amaranthus retroflexus • ECHCG Echinochloa crus galli • PHBPU Phartoitis purpureum • STEME Stellaria media • ALOMY Alopecurus myosuroides • AVEFA Avena fatua • MATIN Matricaria inodora • POLCO Fallopia convolvulus • VERPE Veronica persica 1. Pre-emergence Herbicidal Action Against Harmful Plants Seeds of monocotyledonous and dicotyledonous weed plants and crop plants are placed in wood-fibre pots in sandy loam and covered with soil. The compounds according to the invention and the compounds known from the prior art, formulated in the form of wettable powders (WP) or as emulsion concentrates (EC), are then applied as aqueous suspension or emulsion at a water application rate of 600 to 800 I/ha (converted) with the addition of 0.2% of wetting agent to the surface of the covering soil. After the treatment, the pots are placed in a greenhouse and kept under good growth conditions for the test plants. The visual assessment of the damage to the test plants is carried out after a trial period of 3 weeks by comparison with untreated controls (herbicidal activity in percent (%): 100% activity=the plants have died, 0% activity=like control plants, —=not tested). The results of comparative table A show the compounds according to the invention have a higher herbicidal activity than the compounds of the greatest structural similarity known from the closest prior art.

Amaranthus retroflexus [2] = assay: as above; conditions: 504 h, dosage 320 g/ha, visual assessment after 3 weeks (Table A), read-out: Herbicidal action against AMARE
Source text: as §1

Echinochloa crus galli [3] = assay: as above; conditions: Echinochloa, 504 h, dosage 320 g/ha, visual assessment after 3 weeks (Table A), read-out: Herbicidal action against ECHCG
Source text: as §1

Matricaria inodora [4] = assay: as above; conditions: Tripleurospermum inodorum, 504 h, dosage 320 g/ha, visual assessment after 3 weeks (Table A), read-out: Herbicidal action against MATIN
Source text: as §1

Phartoitis purpureum [5] = assay: as above; conditions: dosage 320 g/ha, visual assessment after 3 weeks (Table A)
Source text: as §1

Stellaria media [6] = assay: as above; conditions: 504 h, dosage 320 g/ha, visual assessment after 3 weeks (Table A), read-out: Herbicidal action against STEME
Source text: as §1

Veronica persica [7] = assay: as above; conditions: 504 h, dosage 320 g/ha, visual assessment after 3 weeks (Table A), read-out: Herbicidal action against VERPE
Source text: as §1

Abutilon theophrasti [8] = assay: Post-emergence herbicidal action against harmful plants; conditions: 504 h, dosage 80 g/ha, read-out: Herbicidal action against ABUTH
Source text: (§2) The abbreviations used in the tables below denote: • ABUTH Abutilon theophrasti • AMARE Amaranthus retroflexus • ECHCG Echinochloa crus galli • PHBPU Phartoitis purpureum • STEME Stellaria media • ALOMY Alopecurus myosuroides • AVEFA Avena fatua • MATIN Matricaria inodora • POLCO Fallopia convolvulus • VERPE Veronica persica 1. Pre-emergence Herbicidal Action Against Harmful Plants Seeds of monocotyledonous and dicotyledonous weed and crop plants are placed in sandy loam in wood-fibre pots, covered with soil and cultivated in a greenhouse under good growth conditions. 2 to 3 weeks after sowing, the test plants are treated at the one-leaf stage. The compounds according to the invention, formulated in the form of wettable powders (WP) or as emulsion concentrates (EC), are then sprayed as aqueous suspension or emulsion at a water application rate of 600 to 800 I/ha (converted) with the addition of 0.2% of wetting agent onto the green parts of the plants. After the test plants have been kept in the greenhouse under optimum growth conditions for about 3 weeks, the activity of the preparations is rated visually in comparison to untreated controls (herbicidal activity in percent (%): 100% activity=the plants have died, 0% activity=control plants, —=not tested).

Amaranthus retroflexus [9] = assay: as above; conditions: 504 h, dosage 80 g/ha, visual rating after about 3 weeks (Table D), read-out: Herbicidal action against AMARE
Source text: as §2

Echinochloa crus galli [10] = assay: as above; conditions: 504 h, dosage 80 g/ha, visual rating after about 3 weeks (Table D), read-out: Herbicidal action against ECHCG
Source text: as §2

Matricaria inodora [11] = assay: as above; conditions: Tripleurospermum inodorum, 504 h, dosage 80 g/ha, read-out: Herbicidal action against MATIN
Source text: as §2

Phartoitis purpureum [12] = assay: as above; conditions: 504 h, dosage 80 g/ha
Source text: as §2

Stellaria media [13] = assay: as above; conditions: 504 h, dosage 80 g/ha, visual rating after about 3 weeks (Table D), read-out: Herbicidal action against STEME
Source text: as §2

Veronica persica [14] = assay: as above; conditions: 504 h, dosage 80 g/ha, visual rating after about 3 weeks (Table D), read-out: Herbicidal action against VERPE
Source text: as §2

Fallopia convolvulus = assay: as above; conditions: 504 h, dosage 80 g/ha, read-out: Herbicidal action against POLCO
Source text: as §2

[15] = visual rating after about 3 weeks (Table D)
[16] = visual rating after about 3 weeks (Table D), read-out: Herbicidal action against PHBPU
[17] = visual rating after about 3 weeks (Table E)
[18] = visual rating after about 3 weeks (Table E), read-out: Herbicidal action against PHPBU

Row | Compound | pest or weed control at 320 g/ha (Abutilon theophrasti [1]) | pest or weed control at 320 g/ha (Amaranthus retroflexus [2]) | pest or weed control at 320 g/ha (Echinochloa crus galli [3]) | pest or weed control at 320 g/ha (Matricaria inodora [4]) | Herbicidal action against PHBPU (Phartoitis purpureum [5]) | pest or weed control at 320 g/ha (Stellaria media [6]) | pest or weed control at 320 g/ha (Veronica persica [7]) | pest or weed control at 80 g/ha (Abutilon theophrasti [8]; [15]) | pest or weed control at 80 g/ha (Amaranthus retroflexus [9]) | pest or weed control at 80 g/ha (Echinochloa crus galli [10]) | pest or weed control at 80 g/ha (Matricaria inodora [11]; [15]) | pest or weed control at 80 g/ha (Phartoitis purpureum [12]; [16]) | pest or weed control at 80 g/ha (Stellaria media [13]) | pest or weed control at 80 g/ha (Veronica persica [14]) | pest or weed control at 80 g/ha (Fallopia convolvulus; [15]) | pest or weed control at 80 g/ha (Abutilon theophrasti [8]; [17]) | pest or weed control at 80 g/ha (Fallopia convolvulus; [17]) | pest or weed control at 80 g/ha (Matricaria inodora [11]; [17]) | pest or weed control at 80 g/ha (Phartoitis purpureum [12]; [18])
1 | CCN(CC)C(=O)COc1c(S(C)(=O)=O)ccc(C(=O)C2=C(O)CCCC2=O)c1C(F)(F)F [Compound E2] | 100% | 100% | 100% | 100% | 80% | 90% | 100% | 90% | 100% | 90% | 100% | 100% | 100% | 100% |  |  |  |  | 
2 | CCN(CC)C(=O)COc1c(S(=O)(=O)CC)ccc(C(=O)C2=C(O)CCCC2=O)c1C(F)(F)F [Compound E3] | 100% | 100% | 100% | 100% | 90% | 100% | 100% | 100% | 100% | 100% | 90% | 90% | 100% | 100% | 90% |  |  |  | 
3 | CN(C)C(=O)COc1c(S(C)(=O)=O)ccc(C(=O)C2=C(O)CCCC2=O)c1C(F)(F)F [Compound E4] | 100% | 100% | 100% | 100% |  | 90% | 100% | 90% | 90% |  | 90% |  | 100% | 100% | 70% |  |  |  | 
4 | CCN(C)C(=O)COc1c(S(=O)(=O)CC)ccc(C(=O)C2=C(O)CCCC2=O)c1C(F)(F)F [Compound E6] | 100% | 100% | 100% | 100% |  | 100% | 100% | 100% | 90% | 100% | 100% | 100% | 100% | 100% | 90% |  |  |  | 
5 | CCS(=O)(=O)c1ccc(C(=O)C2=C(O)CCCC2=O)c(C(F)(F)F)c1OCC(=O)NC [Compound E10] |  |  |  |  |  |  |  |  |  |  |  |  |  |  |  | 100% | 100% | 90% | 100%
6 | CCN(CC)C(=O)COc1c(S(C)(=O)=O)ccc(C(=O)C2=C(O)CCCC2=O)c1Cl [Compound S2, reference compound] | 40% | 100% | 70% | 60% | 70% | 20% | 100% | 80% | 90% | 30% | 70% | 90% | 90% | 90% |  |  |  |  | 
7 | CCN(CC)C(=O)COc1c(S(=O)(=O)CC)ccc(C(=O)C2=C(O)CCCC2=O)c1Cl [Compound S3, reference compound] | 70% | 80% | 50% | 80% | 40% | 50% | 100% | 90% | 100% | 0% | 70% | 60% | 90% | 90% | 40% |  |  |  | 
8 | CN(C)C(=O)COc1c(S(C)(=O)=O)ccc(C(=O)C2=C(O)CCCC2=O)c1Cl [Compound S4, reference compound] | 50% | 100% | 40% | 80% |  | 90% | 100% | 70% | 60% |  | 70% |  | 90% | 90% | 0% |  |  |  | 
9 | CCN(C)C(=O)COc1c(S(=O)(=O)CC)ccc(C(=O)C2=C(O)CCCC2=O)c1Cl [Compound S6, reference compound] | 100% | 100% | 90% | 80% |  | 80% | 90% | 90% | 80% | 20% | 80% | 80% | 90% | 100% | 0% |  |  |  | 
10 | CCS(=O)(=O)c1ccc(C(=O)C2=C(O)CCCC2=O)c(Cl)c1OCC(=O)NC [Compound S10, reference compound] |  |  |  |  |  |  |  |  |  |  |  |  |  |  |  | 90% | 80% | 70% | 90%
